Results as given in PMC8197120, “Synthesis and Characterization of Some New Quinoxalin-2(1H)one and 2-Methyl-3H-quinazolin-4-one Derivatives Targeting the Onset and Progression of CRC with SAR, Molecular Docking, and ADMET Analyses” (Molecules, 2021).
In brackets after ≈: the same amount, converted by molar mass. Like-named read-outs stand apart in the source and are kept apart here.

Experiments:
[1] = tested on: Bacteroides fragilis (ATCC 25285); experiment: Antibacterial activity, CFU viability; format: cell-based; details: ATCC25285, mean of two determinations, read-out: Mean IC50 ± SD
Experimental: (§1) Pure standard microbial isolates collected from King Khaled University Hospital were tested in this study, including Enterococcus faecalis (ATCC 29122) as Gram positive bacteria and Escherichia coli (ATCC 25922) and Bacteroides fragilis (ATCC 25285) as Gram negative bacteria. Fresh cultures of each microorganism were grown on nutrient agar plates (Oxoid, UK), of which small inoculums were suspended in 5 mL nutrient broth for bacterial suspension preparation of 0.5MacFarland. Bacterial viability was investigated by estimating the colony-forming unit (CFU) ability of the bacteria incubated at different time intervals without or with appropriate amounts of the compound that were mixed with 2 × 10^7 CFU/mL in sterile BHI broths and were incubated under shaking for 60 min at 37 °C. Samples were serially diluted into sterile BHI broths, streaked onto media agar plates, and incubated for 24 h at 37 °C. The antibacterial potency of tested compounds was expressed as the residual number of CFU with reference to the initial inoculums. […] Ampicillin (1 mg/mL) was used as a positive standard reference.

[2] = tested on: Enterococcus faecalis (ATCC 29122); experiment: Antibacterial activity, CFU viability; format: cell-based; details: ATCC29122, mean of two determinations, read-out: Mean IC50 ± SD
Experimental: as §1

[3] = tested on: Escherichia coli (ATCC 25922); experiment: Antibacterial activity, CFU viability; format: cell-based; details: ATCC25922, mean of two determinations, read-out: Mean IC50 ± SD
Experimental: as §1

[4] = target: T1, COX-2 (Homo sapiens, UniProt P35354); experiment: Cyclooxygenase (COX-2) inhibition assay (Cayman kit 701080); format: biochemical; details: for inhibition at 100 µg/mL: read-out: Mean Inhibition % at 100 µg/ml ± SD; for inhibition at 200 µg/mL: read-out: Mean Inhibition % at 200 µg/ml ± SD
T1 construct: purchased Cayman Chemical Company 701080
T1 sequence (P35354 18-604): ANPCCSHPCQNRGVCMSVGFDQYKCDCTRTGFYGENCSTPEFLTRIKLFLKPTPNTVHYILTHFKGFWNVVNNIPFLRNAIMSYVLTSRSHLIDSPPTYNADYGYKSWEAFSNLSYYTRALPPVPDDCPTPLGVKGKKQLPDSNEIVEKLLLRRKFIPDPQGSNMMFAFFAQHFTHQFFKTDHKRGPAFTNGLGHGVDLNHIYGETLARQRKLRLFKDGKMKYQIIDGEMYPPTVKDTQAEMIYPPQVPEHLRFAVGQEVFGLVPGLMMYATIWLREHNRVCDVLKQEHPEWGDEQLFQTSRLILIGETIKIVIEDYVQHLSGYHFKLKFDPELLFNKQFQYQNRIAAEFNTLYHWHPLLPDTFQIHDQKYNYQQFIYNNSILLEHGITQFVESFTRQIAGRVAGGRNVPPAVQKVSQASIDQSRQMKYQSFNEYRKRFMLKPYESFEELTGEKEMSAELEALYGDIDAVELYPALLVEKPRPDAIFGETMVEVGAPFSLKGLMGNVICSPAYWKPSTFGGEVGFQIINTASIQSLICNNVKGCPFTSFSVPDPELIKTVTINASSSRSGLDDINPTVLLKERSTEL
Experimental: The compounds were resuspended in 100% DMSO at a final concentration of 10 mg/mL. […] The inhibitory activity was expressed as the inhibition percentage, which was determined by comparison with a control experiment. IC50 values were deduced from the curves.

[5] = target: purified recombinant human LDHA protein (Homo sapiens, UniProt P00338); experiment: Lactate dehydrogenase-A (LDHA) inhibition assay, NADH consumption; format: biochemical; details: for fold by which (6e) is more potent than the labelled compound (LDHA inhibition efficiency): comparator 6e; for inhibition at 100 µg/mL / inhibition at 200 µg/mL: LDHA; for inhibition at 100 µg/mL: read-out: Mean Inhibition % at 100 µg/ml ± SD; for inhibition at 200 µg/mL: read-out: Mean Inhibition % at 200 µg/ml ± SD
Experimental: LDHA inhibition activity was investigated by measuring the amounts of consumed NADH as described by Kim and his group. Briefly, different concentrations of each compound (50, 100, 200, and 300 µg) were incubated in buffer containing 20 mM of HEPES-K+ (pH 7.2), 20 μM of NADH, 2 mM of pyruvate, and 10 ng of purified recombinant human LDHA protein for 10 min. The fluorescence of NADH, which has an excitation wavelength of 340 nm and emission wavelength of 460 nm, was detected using a Spectrofluorometer.

[6] = In vitro cytotoxicity assay (LDH release); format: cell-based, human; details: human, 200 µg/ml, 24 h
Experimental: The best-in-class compounds, including (4c), (4d), (6a), (6b), (6d), (6e), and (6g), which were recognized as antimicrobial and enzymatic inhibitors, were further examined for their cytotoxic effects on LoVo and HCT-116 cells of human colon cancer. This was carried out by determining the residual percentages of viable cells after being treated with the compounds at different concentrations (50, 100, 200, and 400 µg/mL), using triton X-100 (at concentration of 0.1%) in the assay medium and the assay as the positive and negative controls, respectively.
Samples were diluted in Dulbecco’s modified Eagles medium, consisting of 10% fetal bovine serum, added to cells grown and cultured for 24 h in a 5% CO2-humidified incubator at 37 °C. Then, the activity of lactate dehydrogenase released from damaged cells was determined in the collected supernatant aliquots using an ELISA end-point assay (Benchmark Plus, Bio-Rad, CA, USA). The 0.1% Triton X-100 in the assay medium and the assay medium only were used as positive and negative controls, respectively. Cell viability, expressed as a relative percentage of the OD values (at 550 nm) for compound-treated cells (final concentration of 200 µg) and the control, is shown as mean ± SD (n = 2).

[7] = HCT-116 colon cancer cells, read-out: Mean % Cell Viability ± SD CRC-HCT-116 cells
[8] = LoVo colon cancer cells, read-out: Mean % Cell Viability ± SD CRC-LoVo cells

SMILES | IC50 [1] | IC50 [2] | IC50 [3] | inhibition at 100 µg/mL [4] | inhibition at 200 µg/mL [4] | fold by which (6e) is more potent than the labelled compound (LDHA inhibition efficiency) ([5]; 200 µg/mL) | inhibition at 100 µg/mL [5] | inhibition at 200 µg/mL [5] | viability at 24 h, 200 µg/mL [6, 7] | viability at 24 h, 200 µg/mL [6, 8] | IC50 [4] | fold decrease of LDHA inhibition efficiency relative to (6g) ([5]; 200 µg/mL, comparator 6g)
Cc1nc2ccc(Cl)cc2c(=O)n1N [Compound 5b] | 37 ± 2.83 µg/mL (≈ 176 µM) | 27.5 ± 2.12 µg/mL (≈ 131 µM) | 13.6 ± 1.48 µg/mL (≈ 64.6 µM) | 5.7 ± 0.99% | 9.05% | 3.6 fold | 11.8 ± 1.06% | 21.2% |  |  |  | 
COc1cc(C=NNc2nc3ccccc3[nH]c2=O)cc([N+](=O)[O-])c1O [Compound 4c, 3-[N’-(4-Hydroxy-3-methoxy-5-nitro-benzylidene)-hydrazino]-1H-quinoxalin-2-one] | 8.05 ± 0.778 µg/mL (≈ 22.7 µM) | 9.6 µg/mL (≈ 27 µM) | 12.7 ± 0.778 µg/mL (≈ 35.6 µM) | 36.5 ± 3.46% | 61.1% |  | 40.6 ± 2.33% | 64.2% | 77.3 ± 3.25% | 72.2 ± 4.45% |  | 
COc1cc(C=Nn2c(C)nc3ccc(Cl)cc3c2=O)ccc1OCc1ccccc1 [Compound 6e, 3-[(4-Benzyloxy-3-methoxy-benzylidene)-amino]-6-chloro-2-methyl-3H-quinazolin-4-one] | 12.8 ± 0.919 µg/mL (≈ 29.4 µM) | 12.4 µg/mL (≈ 28.6 µM) | 15.7 ± 0.919 µg/mL (≈ 36.1 µM) | 57.9% | 100% |  | 44.8 ± 2.9% | 76.8% | 89 ± 2.83% | 93.4 ± 4.81% | 222 µM | 
COc1ccc2cc(C=NNc3nc4ccccc4[nH]c3=O)ccc2c1 [Compound 4e, 3-[N’-(6-Methoxy-naphthalen-2-ylmethylene)-hydrazino]-1H-quinoxalin-2-one] | 27.1 ± 1.84 µg/mL (≈ 78.7 µM) | 18.2 ± 0.99 µg/mL (≈ 52.8 µM) | 31.4 ± 1.48 µg/mL (≈ 91.3 µM) | 30.3 ± 1.84% | 54% |  | 21.1 ± 2.19% | 31.2% |  |  |  | 
CCc1ccc(/C=N/n2c(C)nc3ccc(Cl)cc3c2=O)s1 [Compound 6f, 6-Chloro-3-oro-3-[(5-ethyl-thiophen-2-ylmethylene)-amino]-2-methyl-3H-quinazolin-4-one] | 27.9 ± 1.56 µg/mL (≈ 84.1 µM) | 22.6 ± 0.636 µg/mL (≈ 68 µM) | 33.4 ± 3.39 µg/mL (≈ 101 µM) | 10 ± 1.41% | 20.7% | 1.9 fold | 27.1 ± 1.48% | 40% |  |  |  | 2.2 fold
NN=c1[nH]c2ccccc2[nH]c1=O [Compound 2, 3-hydrazineylidene-3,4-dihydro quinoxalin-2(1H)-one] | 14.5 ± 0.99 µg/mL (≈ 82.3 µM) | 13.6 ± 0.566 µg/mL (≈ 77.2 µM) | 13.7 ± 1.34 µg/mL (≈ 77.5 µM) | 7.55 ± 0.778% | 15.4 ± 2.19% |  | 26.7 ± 1.84% | 47.1% |  |  |  | 
COc1ccc2cc(/C=N/n3c(C)nc4ccc(Cl)cc4c3=O)ccc2c1 [Compound 6c, 6-Chloro-3-oro-3-[(6-methoxy-naphthalen-2-ylmethylene)-amino]-2-methyl-3H-quinazolin-4-one] | 30.1 ± 0.636 µg/mL (≈ 79.5 µM) | 20.4 ± 1.2 µg/mL (≈ 54.1 µM) | 26.9 ± 1.56 µg/mL (≈ 71.2 µM) | 23.8 ± 2.55% | 36.9 ± 1.63% | 3.3 fold | 13.3 ± 0.919% | 23% |  |  |  | 
O=c1[nH]c2ccccc2[nH]c1=O [Compound 1] | 19.4 ± 1.48 µg/mL (≈ 119 µM) | 20.2 ± 1.06 µg/mL (≈ 125 µM) | 25.9 ± 0.778 µg/mL (≈ 159 µM) | 30.9 ± 2.62% | 48.1% |  | 33.8 ± 2.55% | 68.2% |  |  |  | 
COc1cc(C=NNc2nc3ccccc3[nH]c2=O)cc(I)c1O [Compound 4b, 3-[N’-(4-Hydroxy-3-iodo-5-methoxy-benzylidene)-hydrazino]-1H-quinoxalin-2-one] | 40.6 ± 2.33 µg/mL (≈ 93.2 µM) | 30.3 ± 2.4 µg/mL (≈ 69.5 µM) | 13.6 ± 0.849 µg/mL (≈ 31.2 µM) | 12.3 ± 0.919% | 21.1% |  | 27.4 ± 2.4% | 35.4% |  |  |  | 
CC1(C)S[C@@H]2[C@H](NC(=O)[C@H](N)c3ccccc3)C(=O)N2[C@H]1C(=O)O [Ampicillin, ampicillin, reference compound] | 16.1 µg/mL (≈ 46.2 µM) | 12.8 µg/mL (≈ 36.5 µM) | 20.2 µg/mL (≈ 58 µM) |  |  |  |  |  |  |  |  | 
COc1cc(C=NNc2nc3ccccc3[nH]c2=O)cc(Cl)c1O [Compound 4a, 3-[N’-(3-Chloro-4-hydroxy-5-methoxy-benzylidene)-hydrazino]-1H-quinoxalin-2-one] | 13.3 ± 0.849 µg/mL (≈ 38.6 µM) | 27 ± 2.83 µg/mL (≈ 78.3 µM) | 15 ± 0.566 µg/mL (≈ 43.5 µM) | 4.65 ± 0.495% | 12.1% |  | 20.3 ± 1.63% | 28.2% |  |  |  | 
